Measurements reported in patent publication US9248163B2, “Insulin-like growth factor binding protein 7 for treatment of cancer” (University of Massachusetts, priority 2007, dated 2016).

Assays:
[1] = system: SK-MEL-28 cells; assay: Immunoblot analysis of SMARCB1, BNIP3L and activated caspase 3; assay type: cell-based, human; settings: 24 hours, unlike rIGFBP7
Method: (§1) To prepare cell extracts, cells were lysed in Laemmli buffer; for phospho-proteins, cells were lysed in the presence of a phosphatase inhibitor cocktail (Sigma). To prepare conditioned media, cells were grown in Opti-MEM™ (Invitrogen) for 24 hours, and media was harvested and concentrated using Centricon™ plus 20 tubes (Millipore). Conditioned media was normalized to cell number prior to loading the gel. For the experiments shown in FIGS. 3D and 4C, rIGFBP7 was added to the culture medium at a concentration of 10 μg/ml. For the MEK/RAF inhibitor experiment of FIG. 4D, SK-MEL-28 cells were treated with 2 μg/ml or 10 μg/ml rIGFBP7, 20 μM or 40 μM of the MEK inhibitor PD98054 (Calbiochem), or 5 nM or 10 nM the RAF inhibitor GW5074 (Sigma) for 24 hours prior to harvesting cells. Proteins were resolved by SDS-PAGE and transferred to nitrocellulose. Blots were probed with the following antibodies: α-p16 (Abcam), α-acetylated H3K9 (Upstate), α-IGFBP7 (Santa Cruz), α-SMARCB1 (Abnova), α-BNIP3L (Proscience), α-BRAFV600E (Santa Cruz), α-cleaved caspase-3 p11 (Santa Cruz), α-β-actin (Sigma), α-phospho-ERK (Cell Signaling) or α-ERK (Cell Signaling).

[2] = system: BRAF-MEK-ERK signaling in SK-MEL-28 cells; assay: Immunoblot analysis of BRAF-MEK-ERK signaling (phospho-ERK, activated MEK1/2, RKIP); assay type: cell-based, human; settings: SK-MEL-28 cells, 24 hours; PD98054 20 or 40 μM, GW5074 5 or 10 nM
Method: as §1
To test this idea, rIGFBP7 was added to BRAFV600E-positive SK-MEL-28 melanoma cells, and the levels of total and activated ERK (phospho-ERK) were analyzed.

[3] = system: NCI 60 panel of human cancer cell lines; assay: Growth inhibition of the NCI 60 panel cell lines by MEK inhibitor; assay type: cell-based
Method: The growth dependence of the above cell lines on the Ras-BRAF-MEK-Erk signaling pathway was also determined. 1.5×10^5 cells of each cell line were treated with 20 μM of the MEK inhibitor U0216 (Cell Signaling) for 24 hours, and growth of the cell lines was determined. U0216 inhibited growth in 11/11 (100%) of the cell lines that contained a BRAF mutation and 11/13 (84.6) of the cell lines that contained a RAS mutation. The one cell line that contained both a BRAF and a RAS mutation was susceptible to growth inhibition by U0216.

[4] = system: IGFBP7 expression in melanoma cell lines; assay: IGFBP7 mRNA (qRT-PCR) in melanoma cell lines after 5-aza treatment; assay type: cell-based, human; settings: 10 μM, 48 hours
Method: Total RNA was isolated using TRIZOLTM (Invitrogen) 7 days after retroviral transduction and puromycin selection. Reverse transcription was performed using SuperScriptTM II Reverse Transcriptase (Invitrogen) as per the manufacturer's instructions, followed by quantitative real-time PCR using Platinum SYBRTM Green qPCR SuperMix-UDG with Rox (Invitrogen). Bisulfite modification was carried out essentially as described (Frommer et al., 1992, Proc. Natl. Acad. Sci. USA, 89:1827-31), except that hydroquinone was used at a concentration of 125 mM during bisulfite treatment (carried out in the dark) and DNA was desalted on […] columns (Qiagen) after the bisulfite reaction. Six clones were sequenced for each cell line or human tissue sample. For 5-aza-2'-deoxycytidine (5-aza) treatment, melanoma cell lines were treated with 10 μM 5-aza (Calbiochem) for 48 hours.

SMILES: O=C1Nc2ccc(I)cc2/C1=C/c1cc(Br)c(O)c(Br)c1 [RAF inhibitor, reference compound]
- BNIP3L levels and induction of apoptosis [1]: did not increase BINP3L levels or efficiently induce apoptosis
- BRAF-MEK-ERK signaling [2]: blocked BRAF-MEK-ERK signaling

SMILES: N#CC(=C(/N)Sc1ccccc1N)/C(C#N)=C(/N)Sc1ccccc1N [U0216]
- cell lines in which growth was inhibited ([3]; cell lines that contained a BRAF mutation (11/11), 20 μM, 24 hours): 100%
- cell lines in which growth was inhibited ([3]; cell lines that contained a RAS mutation (11/13), 20 μM, 24 hours): 84.6
- cell lines susceptible to growth inhibition ([3]; cell lines without a BRAF or RAS mutation, 20 μM, 24 hours): 0/34
- susceptibility to growth inhibition ([3]; one cell line with both a BRAF and a RAS mutation): susceptible

SMILES: Nc1ncn([C@H]2C[C@H](O)[C@@H](CO)O2)c(=O)n1 [5-aza-2′-deoxycytidine]
- IGFBP7 expression ([4]; BRAF/RAS-wild type cell lines): no effect
- IGFBP7 expression ([4]; BRAFV600E- and NRASQ61R-positive cell lines): restored IGFBP7 expression
